In patent US20100298141A1, “SUBSTITUTED PYRIDINE N-OXIDE HERBICIDES” (E. I. DU PONT DE NEMOURS AND COMPANY, priority 2007, published 2010):

Columns and labels:
barnyardgrass = assay: Test A pre-/postemergence greenhouse test; format: in vivo, Echinochloa crus-galli; conditions: for Barnyardgrass plant response rating: 0 to 100 scale; for Plant response rating, Barnyardgrass: 0 to 100 scale where 0 is no effect and 100 is complete control
Procedure, shortened: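 Herbicidal effect is a visual injury score given about ten days post-treatment by comparison with untreated controls. Preemergence plots received a directed spray onto sown loam–sand soil; postemergence plants, at the one- to two-leaf stage and 2–10 cm tall, were sprayed at the same time.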

kochia = assay: Test C pre-/postemergence test; format: in vivo, Kochia scoparia
Description: (§1) Seeds of plant species selected from blackgrass (Alopecurus myosuroides), downy brome (Bromus tectorum), green foxtail (Setaria viridis), Italian ryegrass (Lolium multiflorum), wheat (Triticum aestivum), wild oat (Avena fatua), catchweed bedstraw (Galium aparine), Russian thistle (Salsola kali), […] (Cynodon dactylon), Surinam grass (Brachiaria decumbens), cocklebur (Xanthium strumarium), corn (Zea mays), crabgrass (Digitaria sanguinalis), woolly cupgrass (Eriochloa villosa), giant foxtail (Setaria faberii), Goosegrass (Eleusin indica), johnsongrass (Sorghum halepense), kochia (Kochia scoparia), lambsquarters (Chenopodium album), morningglory (Ipomoea coccinea), eastern black nightshade (Solanum ptycanthum), yellow nutsedge (Cyperus esculentus), pigweed (Amaranthus retroflexus), common ragweed (Ambrosia elation), soybean (Glycine max), common (oilseed) sunflower (Helianthus annuus), and velvetleaf (Abutilon theophrasti) were planted and treated preemergence with test chemicals formulated in a non-phytotoxic solvent mixture which included a surfactant. At the same time, plants selected from these crop and weed species and also winter barley (Hordeum vulgare), canarygrass (Phalaris minor), and chickweed (Stellaria media) were treated with postemergence applications of some of the test chemicals formulated in the same manner. Plants ranged in height from 2 to 18 cm (1- to 4-leaf stage) for postemergence treatments. […] At time of treatment, test pots were flooded to 3 cm above the soil surface, treated by application of test compounds directly to the paddy water, and then maintained at that water depth for the duration of the test. […] A dash (-) response means no test result.

velvetleaf = assay: Test C pre-/postemergence test; format: in vivo, Abutilon theophrasti
Description: as §1

cocklebur = assay: Test C pre-/postemergence test; format: in vivo, Xanthium strumarium
Description: as §1

[1] = Postemergence, 125 g ai/ha, 0 is no effect, 100 is complete control
[2] = Postemergence, 500 g ai/ha, 0 is no effect, 100 is complete control
[3] = Preemergence, 125 g ai/ha, 0 no effect, 100 complete control
[4] = 31 g ai/ha, Preemergence, scale 0 to 100
[5] = 62 g ai/ha, preemergence, scale 0 (no effect) to 100 (complete control)
[6] = preemergence, 125 g ai/ha, scale 0 (no effect) to 100 (complete control)
[7] = 62 g ai/ha, Preemergence, scale 0 to 100
[8] = 125 g ai/ha, preemergence, scale 0 (no effect) to 100 (complete control)
[9] = Preemergence, 31 g ai/ha, scale 0 to 100 (0 no effect, 100 complete control)
[10] = preemergence, 250 g ai/ha, scale 0 (no effect) to 100 (complete control)
[11] = Postemergence, 62 g ai/ha, scale 0 to 100, 0 no effect, 100 complete control
[12] = Postemergence, 125 g ai/ha, scale 0 to 100, 0 no effect, 100 complete control
[13] = Postemergence, 250 g ai/ha, scale 0 to 100, 0 no effect, 100 complete control

| SMILES | Barnyardgrass plant response rating (barnyardgrass; [1]) | Barnyardgrass plant response rating (barnyardgrass; [2]) | Barnyardgrass plant response rating (barnyardgrass; [3]) | Plant response rating, Barnyardgrass (barnyardgrass; Preemergence, 500 g ai/ha) | Velvetleaf plant response rating (velvetleaf; [7]) | Velvetleaf plant response rating (velvetleaf; [8]) | Plant response rating, Velvetleaf (velvetleaf; [9]) | Velvetleaf plant response rating (velvetleaf; [10]) | Cocklebur plant response rating (cocklebur; [7]) | Cocklebur plant response rating (cocklebur; [8]) | Cocklebur plant response rating (cocklebur; [10]) | Plant response rating, Barnyardgrass (barnyardgrass; Postemergence, 125 g ai/ha) | Kochia plant response rating (kochia; [7]) | Kochia plant response rating (kochia; [8]) | Plant response rating, Kochia (kochia; [9]) | Kochia plant response rating (kochia; [10]) | Plant response rating, Cocklebur (cocklebur; [9]) | further results |
| --- | --- | --- | --- | --- | --- | --- | --- | --- | --- | --- | --- | --- | --- | --- | --- | --- | --- | --- |
| Cc1cc[n+]([O-])c(S(=O)(=O)C(C)c2c(C(F)(F)F)nn(C)c2Cl)c1 (racemic) [Compound 14] | 30 | 60 | 80 | 100 |  |  |  |  |  |  |  |  |  |  |  |  |  | Kochia plant response rating (kochia; [4]): 0; Kochia plant response rating (kochia; [5]): 0; Plant response rating (0 to 100), Kochia (kochia; Preemergence, 250 g ai/ha): 100; Kochia plant response rating (kochia; [6]): 100; Velvetleaf plant response rating (velvetleaf; [5]): 10; Plant response rating (0 to 100), Velvetleaf (velvetleaf; Preemergence, 250 g ai/ha): 100; Velvetleaf plant response rating (velvetleaf; [6]): 100; Cocklebur plant response rating (cocklebur; [4]): 0; Cocklebur plant response rating (cocklebur; [5]): 0; Plant response rating (0 to 100), Cocklebur (cocklebur; Preemergence, 250 g ai/ha): 10; Cocklebur plant response rating (cocklebur; [6]): 10 |
| Cn1nc(C(F)(F)F)c(C[S+]([O-])c2cc(Br)cc[n+]2[O-])c1Cl (racemic) [Compound 35] | 50 | 80 | 70 | 100 | 100 | 100 | 55 | 100 | 0 | 0 | 0 |  |  |  |  |  |  |  |
| CCc1cc[n+]([O-])c([S+]([O-])Cc2c(C(F)(F)F)nn(C)c2OCC(F)(F)F)c1 (stereo not shown) [Compound 59] |  | 90 | 100 | 100 | 70 | 100 | 0 | 100 | 0 | 30 | 80 | 80 | 70 | 100 | 0 | 100 | 0 |  |
| Cn1nc(C(F)(F)F)c(C(Cl)S(=O)(=O)c2cccc[n+]2[O-])c1OC(F)F (stereo not shown) [Compound 51] |  | 80 | 90 | 100 | 0 | 50 | 0 | 80 | 0 | 0 | 0 | 50 | 100 | 100 | 65 | 100 | 0 |  |
| CCc1cc[n+]([O-])c(S(=O)(=O)Cc2c(C(F)(F)F)nn(C)c2OC(F)F)c1 [Compound 102] |  | 80 | 80 |  | 30 | 80 | 0 | 95 | 0 | 0 | 0 | 70 | 70 | 100 | 70 | 100 | 0 | Barnyardgrass plant response rating (barnyardgrass; Preemergence, 500 g ai/ha, 0 no effect, 100 complete control): 100 |
| [O-][n+]1cc(Cl)ccc1[S+]([O-])Cc1c(C(F)(F)F)nn(CC(F)(F)F)c1Cl (stereo not shown) [Compound 47] |  | 90 | 90 | 100 | 0 | 70 | 0 | 100 | 0 | 0 | 0 | 80 | 0 | 100 | 0 | 100 | 0 | Plant response rating (0 to 100), Kochia (kochia; Postemergence, 31 g ai/ha): 0; Plant response rating, Kochia (kochia; [11]): 0; Plant response rating, Kochia (kochia; [12]): 0; Plant response rating, Kochia (kochia; [13]): 0; Plant response rating (0 to 100), Velvetleaf (velvetleaf; Postemergence, 31 g ai/ha): 0; Plant response rating (0 to 100), Velvetleaf (velvetleaf; Postemergence, 62 g ai/ha): 0; Plant response rating, Velvetleaf (velvetleaf; [12]): 0; Plant response rating, Velvetleaf (velvetleaf; [13]): 20; Plant response rating (0 to 100), Cocklebur (cocklebur; Postemergence, 31 g ai/ha): 0; Plant response rating, Cocklebur (cocklebur; [11]): 0; Plant response rating, Cocklebur (cocklebur; [12]): 0; Plant response rating, Cocklebur (cocklebur; [13]): 0 |
| C#CCOc1c(C[S+]([O-])c2cccc[n+]2[O-])c(C(F)(F)F)nn1C (stereo not shown) [Compound 76] |  | 80 | 80 | 100 | 100 | 100 | 0 | 100 | 0 | 0 | 10 | 70 | 100 | 100 | 70 | 100 | 0 |  |
| Cc1cc[n+]([O-])c(S(=O)(=O)Cc2c(C(F)(F)F)nn(C)c2OCC(F)F)c1 [Compound 94] |  | 90 | 70 | 100 | 40 | 100 | 0 | 100 | 0 | 0 | 0 | 60 | 100 | 100 | 85 | 100 | 0 |  |
| Cn1nc(C(F)(F)F)c(CS(=O)(=O)c2ccc(Cl)c[n+]2[O-])c1Cl [Compound 18] | 60 | 80 | 90 | 100 | 0 |  | 0 |  | 0 |  |  |  | 0 |  | 0 |  | 0 | Plant response rating (0 to 100), Cocklebur (cocklebur; Preemergence, 250 g ai/ha): 0; Cocklebur plant response rating (cocklebur; [6]): 0 |
| Cn1nc(C(F)(F)F)c(CS(=O)(=O)c2ccc(Cl)c[n+]2[O-])c1OCC(F)(F)F [Compound 73] |  | 80 | 90 | 90 | 30 | 40 | 0 | 70 | 0 | 0 | 0 | 70 | 100 | 100 | 60 | 100 | 0 |  |
| Cn1nc(C(F)(F)F)c(CS(=O)(=O)c2ccc(Cl)c[n+]2[O-])c1OC(F)F [Compound 7] | 10 |  | 90 | 90 |  |  |  |  |  |  |  |  |  |  |  |  |  | Velvetleaf plant response rating (velvetleaf; [5]): 0; Plant response rating (0 to 100), Velvetleaf (velvetleaf; Preemergence, 250 g ai/ha): 0; Velvetleaf plant response rating (velvetleaf; [6]): 0; Cocklebur plant response rating (cocklebur; [4]): 0; Cocklebur plant response rating (cocklebur; [5]): 0; Plant response rating (0 to 100), Cocklebur (cocklebur; Preemergence, 250 g ai/ha): 0; Cocklebur plant response rating (cocklebur; [6]): 0 |
